In assay [1] the target is T1, H. pylori flavodoxin (Helicobacter pylori, UniProt O25776).
T1 construct: made in house; host or cells: E. coli BL21 (flavodoxin, pET28a); E. coli JVQ2 (PFOR); E. coli BL21(DE3) (FqrB)
T1 sequence (O25776 1-164): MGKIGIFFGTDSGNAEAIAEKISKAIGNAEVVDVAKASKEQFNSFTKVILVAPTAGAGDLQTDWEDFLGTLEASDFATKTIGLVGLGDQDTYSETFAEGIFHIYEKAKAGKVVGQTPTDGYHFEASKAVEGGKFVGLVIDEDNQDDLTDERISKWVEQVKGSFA
Description: Inhibition assay of sequential electron transfer pyruvate/PFOR/flavodoxin/FqrB/NADP+ (NADPH formation at 340 nm). Format: biochemical. To be noted: 50 μM compound; anaerobic; 10 μM Fld; absorbance at 340 nm. The text has this: Flavodoxin is an essential protein for Helicobacter pylori survival as it participates in a fundamental reaction for obtaining energy from the oxidative decarboxylation of pyruvate. In this reaction, flavodoxin transfers electrons between the PFOR enzyme and the FqrB enzyme, which releases them to NADP^+.
The sequential reaction of electron transfer between pyruvate, PFOR, flavodoxin, FqrB and NADP^+ (activity assay) was followed spectroscopically by the appearance of the signal at 340 nm with the formation of NADPH. The reaction mixture contained 100 mM potassium phosphate pH 7, 10 mM pyruvate, 0.18 mM CoA, 1 mM MgCl, 0.3 mM NADP^+, 0.09 mg/ml PFOR, 10 μM Fld and 0.15 μM FqrB. The mixture, except CoA, was placed in a cuvette specially designed for anaerobic conditions. Oxygen was removed by means of 5 minute cycles with alternate flows of vacuum and argon. The reaction was started by the addition of 0.18 mM coenzyme A (CoA) that was held in a compartment inside the same cuvette. The reaction finished 15 minutes after adding the CoA reagent.
The inhibition assays were carried out in the same conditions as the activity assays previously described, adding an additional 50 μM of the disclosed compound of the general formula shown in (II) to the reaction cuvette.

Assay [2] has as its target T2, flavodoxin of H. pylori (Helicobacter pylori, UniProt O25776).
T2 construct: made in house; host or cells: E. coli BL21 (pET28a)
The assay can be described thus: Isothermal titration calorimetry (ITC) binding to flavodoxin. To be noted: 50 mM EPPS buffer, pH 9, 7% DMSO; protein around 20 μM; read-out: affinity for flavodoxin (ITC). The protocol: The specific binding of the inhibitors of the disclosed compounds to flavodoxin of H. pylori was confirmed by isothermal titration calorimetry (ITC). This technique not only measures the affinity of each compound for the target protein, but also determines the contribution of the enthalpic and entropic components of binding.
The binding experiments were carried out in 50 mM EPPS buffer, pH 9 with 7% DMSO, with the inhibitor in the injection syringe at a concentration of 300-500 μM, and the protein around 20 μM in the measurement cell.
In general terms: In ITC the heat of successive injections is recorded.

The record followed here is patent US8080664B2, “Use of compounds as inhibitors for Helicobacter flavodoxin” (Universidad De Zaragoza, priority 2007, dated 2011).

Structures are written as SMILES.

Regarding `O=[N+]([O-])C1=Cc2cc(Cl)cc(Cl)c2OC1c1ccc(F)cc1` (centres unmarked) [formula (II)], the “inhibition of NADPH formation (pyruvate oxidative decarboxylation reaction)” value in assay [1] is “almost total”. In assay [2], the Kd worked out at 1600 nM.
